Reference: ChEMBL document CHEMBL1201862, “PubChem BioAssay data set” (2004)
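Where inhibition never reached the appropriate level, the endpoint shown equals the highest concentration tested. Otherwise, values were interpolated linearly from a five-concentration, 48-hour dose response in 96-well plates. GI50 is the concentration that inhibits growth by half.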 The source made the active and inactive calls. Cut-off read from the data, not from the text of the source: active = GI50 up to about 1.1 µM and inactive = higher. Numbered stars: 1 amine (or outer) side, 2 acyl side, 3 side chain; on linkers, the order of the positions; unused ones are H or OH. Square brackets hold non-standard residues; d marks the D form. Peptide text beside a SMILES is read from it. * marks the point of attachment. X30 = CC(=O)N(C)SCC(N[*:1])C(=O)[*:2]; Cbz = O=C(OCc1ccccc1)*; Bn = c1ccc(C*)cc1

Columns and labels:
Assay in all cases: growth of human tumour cells (NCI), 48 h
786-0 = system: 786-0
A498 = system: A498
BT-549 = system: BT-549
CAKI-1 = system: CAKI-1
HCT-15 = system: HCT-15
HOP-62 = system: HOP-62
HT-29 = system: HT-29
K562 = system: K562
MCF7 = system: MCF7
MOLT-4 = system: MOLT-4
NCI-H460 = system: NCI-H460
NCI-H522 = system: NCI-H522
NCI/ADR-RES = system: NCI/ADR-RES
OVCAR-3 = system: OVCAR-3
SK-MEL-5 = system: SK-MEL-5
SK-OV-3 = system: SK-OV-3
SN12C = system: SN12C
T47D = system: T47D
UO-31 = system: UO-31
MDA-N = system: MDA-N

| SMILES | GI50 (786-0) | GI50 (A498) | GI50 (BT-549) | GI50 (CAKI-1) | GI50 (HCT-15) | GI50 (HOP-62) | GI50 (HT-29) | GI50 (K562) | GI50 (MCF7) | GI50 (MOLT-4) | GI50 (NCI-H460) | GI50 (NCI-H522) | GI50 (NCI/ADR-RES) | GI50 (OVCAR-3) | GI50 (SK-MEL-5) | GI50 (SK-OV-3) | GI50 (SN12C) | GI50 (T47D) | GI50 (UO-31) | GI50 (MDA-N) |
| --- | --- | --- | --- | --- | --- | --- | --- | --- | --- | --- | --- | --- | --- | --- | --- | --- | --- | --- | --- | --- |
| c1ccc(CSc2nc(N3CCOCC3)c3cn[nH]c3n2)cc1 | 37.7 µM (inactive) | 5.71 µM (inactive) | 11.7 µM (inactive) | 9.18 µM (inactive) | 25.8 µM | 27 µM (inactive) | 30.8 µM (inactive) | 16.2 µM (inactive) | 23.1 µM (inactive) | 22.2 µM (inactive) | 17.8 µM (inactive) | 15.6 µM (inactive) | 15.2 µM (inactive) | 27.7 µM (inactive) | 15.8 µM (inactive) | 25 µM (inactive) | 13.4 µM (inactive) | 15.6 µM (inactive) | 11.6 µM (inactive) |  |
| CN1C(=O)c2c(ccc3c2OCO3)C2C(O)Cc3cc4c(cc3C21)OCO4 (stereo not given) | 4.17 µM (inactive) | 3.18 µM (inactive) | 13.8 µM (inactive) | 4.76 µM (inactive) | 3.73 µM |  | 3.3 µM (inactive) | 4.71 µM (inactive) | 7.5 µM (inactive) | 4.04 µM (inactive) | 3.4 µM (inactive) | 2.87 µM (inactive) | 3.03 µM (inactive) | 5.2 µM (inactive) | 5.51 µM (inactive) | 2.98 µM (inactive) | 4.15 µM (inactive) |  | 6.37 µM (inactive) | 1.91 µM (inactive) |
| CCOC(=O)c1c(N)sc2c1C(C)(C(=O)OCC)CC2 (stereo not given) | > 100 µM (inactive) | 18.2 µM (inactive) | > 100 µM (inactive) |  | > 100 µM | > 100 µM (inactive) | > 100 µM (inactive) | > 100 µM (inactive) | > 100 µM (inactive) | 74.5 µM (inactive) | 69.5 µM (inactive) |  |  |  | > 100 µM (inactive) |  | > 100 µM (inactive) |  | 63.8 µM (inactive) | > 100 µM (inactive) |
| Cc1cc2c(cc1Cl)SC(NNc1cnc3ccccc3n1)=NS2(=O)=O | 38.3 µM (inactive) | 22.8 µM (inactive) | > 100 µM (inactive) | > 100 µM (inactive) | 75.2 µM | 41.7 µM (inactive) | > 100 µM (inactive) | 73.3 µM (inactive) |  | 26.6 µM (inactive) | 33.8 µM (inactive) | > 100 µM (inactive) | > 100 µM (inactive) | 47.4 µM (inactive) | 66.7 µM (inactive) | 44.2 µM (inactive) | 88.3 µM (inactive) | 55.1 µM (inactive) | 30.4 µM (inactive) | 90.2 µM (inactive) |
| CN(C)CCNc1ccc(NCC[N+](C)(C)Cc2ccc([N+](=O)[O-])cc2)c2c1C(=O)c1c(O)ccc(O)c1C2=O | 18.2 µM (inactive) | > 100 µM (inactive) | 18.8 µM (inactive) | 12.2 µM (inactive) | 6.82 µM | 79.3 µM (inactive) | 25.8 µM (inactive) | 6.08 µM (inactive) |  | 0.509 µM (active) |  |  | > 100 µM (inactive) | > 100 µM (inactive) | 10.8 µM (inactive) |  | 12.2 µM (inactive) | 36.3 µM (inactive) |  | 20.7 µM (inactive) |
| COC(=O)C1=C(OC)[C@H]2C#C/C=C\C#C[C@@H]3Nc4c(cc(O)c5c4C(=O)c4ccccc4C5=O)[C@]24O[C@@]34[C@H]1C | < 0.01 µM (active) | < 0.01 µM (active) | < 0.01 µM (active) | < 0.01 µM (active) | < 0.01 µM | < 0.01 µM (active) | < 0.01 µM (active) | < 0.01 µM (active) | < 0.01 µM (active) | < 0.01 µM (active) | < 0.01 µM (active) | < 0.01 µM (active) | < 0.01 µM (active) | < 0.0153 µM (active) | < 0.01 µM (active) | < 0.01 µM (active) | < 0.01 µM (active) |  | < 0.01 µM (active) | < 0.01 µM (active) |
| CCOP(=O)(O)CC1OC(CO)C(O)C1O (stereo not given) | > 100 µM (inactive) |  | > 100 µM (inactive) |  | > 100 µM | > 100 µM (inactive) | > 100 µM (inactive) | > 100 µM (inactive) |  | > 100 µM (inactive) | > 100 µM (inactive) | > 100 µM (inactive) | > 100 µM (inactive) | > 100 µM (inactive) | > 100 µM (inactive) | > 100 µM (inactive) | > 100 µM (inactive) | > 100 µM (inactive) | > 100 µM (inactive) | > 100 µM (inactive) |
| CC1OC2OC3C(OCC(O)C3O)OC(=O)[C@]34CCC(C)(C)CC3C3=CCC5[C@@]6(C)C[C@H](O)[C@H](OC7OC(CO)C(O)C(O)C7OC7OC(COC(=O)CC(C)(O)CC(=O)OC1C(OC1OC(CO)C(O)C(O)C1O)C2O)C(O)C(O)C7O)[C@@](C)(CO)C6CC[C@@]5(C)[C@]3(C)CC4 (stereo not given in full) | 2.84 µM (inactive) |  | 6.03 µM (inactive) | 7.53 µM (inactive) | 6.25 µM | 1.46 µM (inactive) | 1.52 µM (inactive) |  |  | 2.98 µM (inactive) | 9.55 µM (inactive) | 2 µM (inactive) | 3.15 µM (inactive) | 4.35 µM (inactive) | 0.137 µM (active) | 12.2 µM (inactive) | 4.98 µM (inactive) | 3.34 µM (inactive) | 1.64 µM (inactive) | 1.44 µM (inactive) |
| c1cc2c(cc1C1=NCCN1)c1cc(C3=NCCN3)ccc1n2CC1CCCCC1 | 19.4 µM (inactive) | > 100 µM (inactive) | 18.5 µM (inactive) | > 100 µM (inactive) | > 100 µM | 23.8 µM (inactive) | 11.5 µM (inactive) | 14.8 µM (inactive) |  | 5.05 µM (inactive) | 14.7 µM (inactive) | 4.94 µM (inactive) | > 100 µM (inactive) | 21.2 µM (inactive) | 11.9 µM (inactive) | 18.5 µM (inactive) | 14 µM (inactive) | 19.1 µM (inactive) | 81.3 µM (inactive) | 23.6 µM (inactive) |
| COC(=O)c1ccc(OCCn2nnc(C(=O)NN)c2C(=O)NN)cc1 | > 100 µM (inactive) |  | > 100 µM (inactive) | > 100 µM (inactive) | > 100 µM | > 100 µM (inactive) | > 100 µM (inactive) | > 100 µM (inactive) | > 100 µM (inactive) | > 100 µM (inactive) | 74 µM (inactive) |  | > 100 µM (inactive) | > 100 µM (inactive) | > 100 µM (inactive) |  | > 100 µM (inactive) |  | > 100 µM (inactive) | > 100 µM (inactive) |
| CC(=O)N(C)SCC(NC(=O)C(Cc1ccccc1)NC(=O)OCc1ccccc1)C(=O)NC(Cc1ccccc1)C(=O)NC(Cc1c[nH]c2ccccc12)C(=O)NC(CCCCNC(=O)OCc1ccccc1)C(=O)NC(C(=O)NC(CSN(C)C(C)=O)C(=O)NC(C(N)=O)C(C)OCc1ccccc1)C(C)OCc1ccccc1 (stereo not given) (Cbz-F[X30]FWK(Cbz)T(Bn)[X30]T(Bn)-NH2; configuration not given here) | > 100 µM (inactive) |  | > 100 µM (inactive) |  | > 100 µM | > 100 µM (inactive) | > 100 µM (inactive) | > 100 µM (inactive) | 86.5 µM (inactive) | > 100 µM (inactive) | > 100 µM (inactive) |  | > 100 µM (inactive) | > 100 µM (inactive) | > 100 µM (inactive) | 1.63 µM (inactive) | > 100 µM (inactive) | > 100 µM (inactive) | > 100 µM (inactive) | > 100 µM (inactive) |
